From patent publication US7220751B2, “Quinazoline derivatives and drugs” (Nippon Shinyaku Co., Ltd., priority 2001, dated 2007) come the findings set out here.

In experiment [1] the target is T1, human nociceptin receptor (Homo sapiens, UniProt P41146).
T1 construct: expressed in transfected cells
The experiment in a line: Nociceptin receptor binding test ([3H]-nociceptin). The note with it: membranes of human nociceptin receptor expressing cell; 0.08 nM [3H]-nociceptin; 25° C., 60 minutes. On the procedure: Nociceptin Receptor Binding Test
A suspension of cell membrane obtained from a human nociceptin receptor expressing cell was adjusted at a protein concentration of 5 to 10 μg/ml using a Tris-buffer solution [50 mM Tris-HCl (pH 7.8), 5 mM MgCl2, 1 mM EGTA, 0.1% BSA]. The solution was incubated with [^3H]-nociceptin (diluted at the final concentration of 0.08 nM using Tris-buffer) and a test compound at 25° C. for 60 minutes. The membrane was recovered using a cell harvester onto a glass fiber (GF) filter GF/B which had previously been treated with 0.3% polyethyleneimine (PEI), and then washed further 4 times with a washing solution[50 mM Tris-HCl (pH 7.8), 4° C.]. The filter was transferred into a counteing vial. Adequate amount of scintillator was added to the vial and the radioactivity was measured using a liquid scintillation counter. A non-specific binding was regarded as a binding of [^3H]-nociceptin in the presence of 10 μM nociceptin, and a specific binding was regarded as the difference between the total binding and the non-specific binding. Based on the % binding inhibition in the presence of the test compound, an IC50 value was determined, and used together with the Kd value of [^3H]-nociceptin for calculating the Ki value of the test compound.

A short description of the next experiment: Mouse formalin test. Format: in vivo. To be noted: male ddy mouse, 30 mg/kg subcutaneously 15 min before 1% formalin, mean. On the procedure:
A male ddy strain mouse (4 to 5 weeks old) was kept at a temperature of 21 to 25° C. and a humidity of 45 to 65% in a breeding room under the conditions of a constant lighting cycle (light: 12 hours, dark: 12 hours) while allowing the animal to access a feed and water ad libitum, whereby acclimatizing the animal over a period of 1 week or longer. Each 6 to 7 animals were assigned to each group.
After the mouse was acclimatized to an observation cage sufficiently, it was treated with a test compound, and then after 15 minutes 20 μl of 1% formalin solution was given subcutaneously to a hind limb. The test compound was dissolved in a saline, and immediately given to the mouse subcutaneously at the dose of 0.1 ml per 10 g body weight using a 27G needle. A control group received the physiological saline. The animals were returned to their observation cages, and examined for the duration of the aversive responses such as licking or biting the posterior limb using a stopwatch over a period of 30 minutes.
The significance of the difference was analyzed by the one-way layout analysis of variance between the control group and a treatment group followed by Dunnett's multiple comparison.

In a further experiment the target is T2, human μ receptor (Homo sapiens, UniProt P35372).
T2 construct: purchased Receptor Biology, Inc
The experiment can be described thus: μ receptor binding test ([3H]-diprenorphine). The note with it: human μ receptor expressing cell membrane preparation; 0.13 nM [3H]-diprenorphine; 25° C., 90 minutes; read-out: μ preceptor Ki. On the procedure:
A nociceptin receptor is a member of an opioid receptor family. An inventive compound was examined for its binding capacity to a μ receptor which is also a member of an opioid receptor family and which is involved in an analgesic effect and a dependency, and compared with the binding capacity to the nociceptin receptor.
A human μ receptor expressing cell membrane preparation (Receptor Biology, Inc) was adjusted at the protein concentration of 8.5 μg/ml using a Tris-buffer solution [50 mM Tris-HCl (pH 7.8), 5 mM MgCl2, 1 mM EGTA, 0.1% BSA]. The solution incubated with [^3H]-diprenorphine (diluted at the final concentration of 0.13 nM using Tris-buffer) and a test compound at 25° C. for 90 minutes. The membrane was recovered using a cell harvester onto a GF/B filter which had previously been treated with 0.3% PEI, and then washed further 4 times with a washing solution [50 mM Tris-HCl (pH 7.8), 4° C.]. The filter was transferred into a counting vial. Adequate amount of scintillator was added and the radioactivity was measured using a liquid scintillation counter. A non-specific binding was regarded as a binding of [^3H]-diprenorphine in the presence of 100 μM naloxone, and a specific binding was regarded as the difference between the total binding and the non-specific binding. Based on the % binding inhibition in the presence of the test compound, an IC50 value was determined, and used together with the Kd value of [^3H]-diprenorphine for calculating the Ki value of the test compound.

The mark [2] stands for this setting: 0~10 min after formalin treatment (phase 1).
The mark [3] stands for this setting: 10~30 min after formalin treatment (phase 2).

Molecules are shown by their SMILES. Structures can show the parent of a compound that is named as a salt. Marks after values point to notes of the source that are not given here.

T2 sequence (P35372 whole entry): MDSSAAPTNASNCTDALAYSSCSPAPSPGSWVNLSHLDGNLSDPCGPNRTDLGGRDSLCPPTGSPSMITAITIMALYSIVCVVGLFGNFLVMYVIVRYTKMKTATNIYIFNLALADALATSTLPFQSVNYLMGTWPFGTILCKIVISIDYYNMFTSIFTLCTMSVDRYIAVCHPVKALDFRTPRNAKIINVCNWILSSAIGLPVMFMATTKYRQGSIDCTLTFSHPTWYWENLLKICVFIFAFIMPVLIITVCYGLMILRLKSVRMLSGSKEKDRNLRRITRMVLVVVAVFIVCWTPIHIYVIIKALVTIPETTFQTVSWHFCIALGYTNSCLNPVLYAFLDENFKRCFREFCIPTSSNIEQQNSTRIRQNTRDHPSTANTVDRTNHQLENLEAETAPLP
T1 sequence (P41146 whole entry): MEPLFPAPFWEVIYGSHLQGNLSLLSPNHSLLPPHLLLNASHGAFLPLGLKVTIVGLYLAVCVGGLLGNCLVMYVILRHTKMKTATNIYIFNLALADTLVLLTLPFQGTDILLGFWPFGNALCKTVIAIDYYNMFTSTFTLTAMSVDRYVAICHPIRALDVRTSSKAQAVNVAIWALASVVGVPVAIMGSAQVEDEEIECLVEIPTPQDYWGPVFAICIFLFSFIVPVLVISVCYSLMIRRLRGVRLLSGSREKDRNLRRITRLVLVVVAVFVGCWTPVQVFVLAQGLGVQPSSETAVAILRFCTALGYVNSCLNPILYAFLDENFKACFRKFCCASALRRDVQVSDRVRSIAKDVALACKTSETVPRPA

The term Ki denotes the equilibrium dissociation constant of an inhibitor or competing ligand from its target. For `Cc1ccc2nc(C=Cc3ccccn3)nc(N[C@@H]3CC[C@H](N)C[C@@H]3C)c2c1` (relative stereo) [Example 1, cis-4-amino-cis-2-methyl-N-{6-methyl-2-[2-(2-pyridyl)ethenyl]quinazolin-4-yl}cyclohexylamine Trihydrochloride], the results for the Ki (in experiment [1]; on human μ receptor) were 4 nM and 207 nM, respectively. Besides, the figures for the “Duration of the abersive response” value in “Mouse formalin test” (setting [2]) and in “Mouse formalin test” (setting [3]) were 47.5** sec and 74.5* sec, respectively.

As to `COc1ccc2nc(C=Cc3ccc(Cl)cc3)nc(N[C@H]3CCCC[C@H]3N)c2c1` (relative stereo) [Example 25, cis-2-[2-(4-chlorostyryl)-6-methoxyquinazolin-4-yl]aminocyclohexylamine dihydrochloride], the Ki in experiment [1] was 110 nM; at human μ receptor it was 204 nM.

For the molecule `COc1ccc2nc(C=Cc3ccccn3)nc(N[C@@H]3CC[C@H](N)C[C@@H]3C)c2c1` (relative stereo) [Example 51, cis-4-amino-cis-2-methyl-N-{6-methoxy-2-[2-(2-pyridyl)ethenyl]quinazolin-4-yl}cyclohexylamine Trihydrochloride], the inhibition constant (Ki) in experiment [1] is 6 nM; on human μ receptor it was 206 nM.

With `Cc1ccc2nc(C=Cc3ccc(Cl)cc3)nc(N[C@H]3CC[C@@H](N)CC3)c2c1` [Example 22, cis-4-[2-(4-chlorostyryl)-6-methylquinazolin-4-yl]aminocyclohexylamine dihydrochloride], the results for the inhibitory constant (Ki) (in experiment [1]; at human μ receptor) were 29 nM and 313 nM, respectively.

For the molecule `Cc1ccc2nc(C=Cc3ccccn3)nc(N[C@H]3CC[C@@H](N)CC3)c2c1.Cl.Cl.Cl` [Example 40, cis-4-{6-methyl-2-[2-(2-pyridyl)ethenyl]quinazolin-4-yl}aminocyclohexylamine Trihydrochloride], the Ki came to 18 nM in experiment [1] and 288 nM at human μ receptor. Further, the results for the “Duration of the abersive response” value in “Mouse formalin test” (setting [2]) and in “Mouse formalin test” (setting [3]) were 64.5** sec and 77.6* sec, respectively.

As for `COc1ccc2nc(C=Cc3ccccn3)nc(N[C@H]3CC[C@@H](N)CC3)c2c1` [Example 44, cis-4-{6-methoxy-2-[2-(2-pyridyl)ethenyl]quinazolin-4-yl}aminocyclohexylamine Trihydrochloride], the inhibition constant (Ki) in experiment [1] turned out to be 23 nM; at human μ receptor, 492 nM.

In the case of `Cc1ccc2nc(C=Cc3cccc(C)n3)nc(NC3CCC(N)CC3C)c2c1.Cl.Cl.Cl` (stereo not drawn) [Example 52, cis-4-amino-cis-2-methyl-N-{6-methyl-2-[2-(6-methyl-2-pyridyl)ethenyl]quinazolin-4-yl}cyclohexylamine Trihydrochloride], the “Duration of the abersive response” value in “Mouse formalin test” (setting [2]) is on record as 79.4** sec; in “Mouse formalin test” (setting [3]), 77.0** sec.

Take `Cc1ccc2nc(C=Cc3ccccn3)nc(N[C@@H]3CC[C@H](N)C[C@@H]3C)c2c1` [Example 57, (1R, 2S, 4S)-4-amino-2-methyl-N-{6-methyl-2-[2-(2-pyridyl)ethenyl]quinazolin-4-yl}cyclohexylamine Trihydrochloride]: the inhibition constant (Ki) amounted to 42 nM in experiment [1] and 284 nM on human μ receptor.

`Cc1ccc2nc(C=Cc3ccccn3)nc(N[C@H]3CC[C@@H](N)C[C@H]3C)c2c1` [Example 58, (1S, 2R, 4R)-4-amino-2-methyl-N-{6-methyl-2-[2-(2-pyridyl)ethenyl]quinazolin-4-yl}cyclohexylamine Trihydrochloride]: the Ki in experiment [1] was 2 nM; at human μ receptor, 234 nM.
